Here are results for six molecules from paper PMC10530720, “Antimicrobial Activity and Toxicity of Newly Synthesized 4-[4-(benzylamino)butoxy]-9H-carbazole Derivatives” (International Journal of Molecular Sciences, 2023).

What all share (format): cell-based
The test system of experiment [1] is Staphylococcus aureus ATCC 29213. As to the kind of experiment: Broth microdilution (CLSI), growth, MIC and MBC. The settings on record: for MBC/MFC: S. aureus (MBC); for inhibition at 16 µg/mL / MIC: Staphylococcus aureus; for inhibition at 16 µg/mL: ATCC29213, 16 µg/mL, read-out: inhibition of S. aureus growth; for MIC: ATCC29213, S. aureus, 24 h at 37 °C. In general terms: Dilution methods test growth across graded concentrations, often in twofold steps.

Experiment [2] concerns Staphylococcus epidermidis ATCC 12228. As to the kind of experiment: Broth microdilution (CLSI), growth, MIC and MBC. The conditions noted are these: for MBC/MFC: S. epidermidis (MBC); for MIC: Staphylococcus epidermidis, ATCC12228, S. epidermidis, 24 h at 37 °C.
Experiment [3] deals with Escherichia coli ATCC 25922. The experiment is described as follows: Broth microdilution (CLSI), growth, MIC and MBC. The conditions noted are these: for MBC/MFC: E. coli (MBC); for MIC: Escherichia coli, ATCC25922, E. coli, 24 h at 37 °C.
Experiment [4] concerns Pseudomonas aeruginosa ATCC 15442. The experiment is described as follows: Broth microdilution (CLSI), growth, MIC and MBC. The conditions noted are these: for MBC/MFC: P. aeruginosa (MBC); for MIC: Pseudomonas aeruginosa, ATCC15442, P. aeruginosa, 24 h at 37 °C.
The subject of experiment [5] is Aspergillus flavus ATCC 9643. As to the kind of experiment: Broth microdilution (CLSI), growth, MIC and MFC. The settings on record: for MBC/MFC: A. flavus (MFC); for MIC: Aspergillus flavus, ATCC9643, A. flavus, 48 h at 37 °C.
Experiment [6] concerns Candida albicans ATCC 10231. The experiment is described as follows: Broth microdilution (CLSI), growth, MIC and MFC. The conditions noted are these: for MBC/MFC: C. albicans (MFC); for MIC: ATCC10231, C. albicans, 48 h at 37 °C.

In general, inhibition refers to the change of the read-out against control, counted positive when it falls. In general, MIC refers to the smallest concentration in the dilution series that meets the test's criterion for growth inhibition. Low readings indicate a more susceptible organism, high ones a less susceptible organism.

Each structure is given as a SMILES string. Converted amounts (≈) assume the structure as drawn. A value given as a limit tells only on which side of the number the result lay.

As to `Fc1cccc(CNCCCCOc2cccc3[nH]c4ccccc4c23)c1` [Compound 2, 4-[4-(3-fluorophenylmethylamino)butoxy]-9H-carbazole], the MBC/MFC in experiment [1] is on record as 32 µg/mL (≈ 88.3 µM); in experiment [2], 32 µg/mL (≈ 88.3 µM); in experiment [3] it was greater than 64 µg/mL; in experiment [4] it was greater than 64 µg/mL; in experiment [5], greater than 64 µg/mL; in experiment [6] it was greater than 64 µg/mL. Also, in experiment [1], the inhibition at 16 µg/mL was greater than 60%. The MIC was 32 µg/mL (≈ 88.3 µM) in experiment [1]; 32 µg/mL (≈ 88.3 µM) in experiment [2]; greater than 64 µg/mL in experiment [3]; greater than 64 µg/mL in experiment [4]; greater than 64 µg/mL in experiment [5]; greater than 64 µg/mL in experiment [6] (Candida albicans). In addition, in experiment [6] (Candida albicans, ATCC10231, 64 µg/mL (highest tested concentration), read-out: C. albicans growth inhibition), the inhibition at 64 µg/mL was roughly 60%.

Consider `C[C@@H](NCCCCOc1cccc2[nH]c3ccccc3c12)c1ccccc1` [Compound 4, (R)-4-[4-(1-phenylethylamino)butoxy]-9H-carbazole], for which the MBC/MFC in experiment [1] is listed as 32 µg/mL (≈ 89.3 µM); in experiment [2] it was 32 µg/mL (≈ 89.3 µM); in experiment [3], greater than 64 µg/mL; in experiment [4], greater than 64 µg/mL; in experiment [5] it was greater than 64 µg/mL; in experiment [6] it was greater than 64 µg/mL. For the same molecule, the inhibition at 16 µg/mL in experiment [1] was greater than 60%. In addition, the minimal inhibitory concentration (MIC) was 32 µg/mL (≈ 89.3 µM) in experiment [1]; 32 µg/mL (≈ 89.3 µM) in experiment [2]; greater than 64 µg/mL in experiment [3]; greater than 64 µg/mL in experiment [4]; greater than 64 µg/mL in experiment [5]; greater than 64 µg/mL in experiment [6] (Candida albicans).

In the case of `Br.C[C@H](NCCCCOc1cccc2[nH]c3ccccc3c12)c1ccccc1` [Compound 10, (S)-4-[4-(1-phenylethylamino)butoxy]-9H-carbazole hydrobromide], the MBC/MFC was 64 µg/mL in experiment [1]; 64 µg/mL in experiment [2]; greater than 64 µg/mL in experiment [3]; greater than 64 µg/mL in experiment [4]; greater than 64 µg/mL in experiment [5]; greater than 64 µg/mL in experiment [6]. Further, the minimum inhibitory concentration (MIC) in experiment [1] is 32 µg/mL; in experiment [2], 32 µg/mL; in experiment [3], greater than 64 µg/mL; in experiment [4], greater than 64 µg/mL; in experiment [5], greater than 64 µg/mL; in experiment [6] (Candida albicans) it was greater than 64 µg/mL.

For `C[C@H](NCCCCOc1cccc2[nH]c3ccccc3c12)c1ccccc1` [Compound 5, (S)-4-[4-(1-phenylethylamino)butoxy]-9H-carbazole], the MBC/MFC is listed as 64 µg/mL (≈ 179 µM) in experiment [1]; 64 µg/mL (≈ 179 µM) in experiment [2]; greater than 64 µg/mL in experiment [3]; greater than 64 µg/mL in experiment [4]; greater than 64 µg/mL in experiment [5]; greater than 64 µg/mL in experiment [6]. The minimal inhibitory concentration (MIC) is 32 µg/mL (≈ 89.3 µM) in experiment [1]; 32 µg/mL (≈ 89.3 µM) in experiment [2]; greater than 64 µg/mL in experiment [3]; greater than 64 µg/mL in experiment [4]; greater than 64 µg/mL in experiment [5]; greater than 64 µg/mL in experiment [6] (Candida albicans).

For `Fc1ccc(CNCCCCOc2cccc3[nH]c4ccccc4c23)cc1` [Compound 3, 4-[4-(4-fluorophenylmethylamino)butoxy]-9H-carbazole], the MIC is 32 µg/mL (≈ 88.3 µM) in experiment [1]; 32 µg/mL (≈ 88.3 µM) in experiment [2]; greater than 64 µg/mL in experiment [3]; greater than 64 µg/mL in experiment [4]; greater than 64 µg/mL in experiment [5]; greater than 64 µg/mL in experiment [6] (Candida albicans). Also, the MBC/MFC in experiment [3], in experiment [4], in experiment [5] and in experiment [6] was greater than 64 µg/mL each time. Moreover, in experiment [3] (among compounds 1–10), the “antimicrobial properties against E. coli, ranking in words” value is given as “strongest antimicrobial properties”.

For the molecule `C[C@@H]1[C@H](O)[C@@H](C)/C=C/C=C/C=C/C=C/C=C/C=C/C=C/[C@H](O[C@@H]2O[C@H](C)[C@@H](O)[C@H](N)[C@@H]2O)C[C@@H]2O[C@](O)(C[C@@H](O)C[C@@H](O)[C@H](O)CC[C@@H](O)C[C@@H](O)CC(=O)O[C@H]1C)C[C@H](O)[C@H]2C(=O)O` [Amphotericin B, reference compound], the MBC/MFC in experiment [5] is reported as 16 µg/mL (≈ 17.3 µM); in experiment [6] it was 1 µg/mL (≈ 1.08 µM). Further, the MIC in experiment [5] turned out to be 4 µg/mL (≈ 4.33 µM); in experiment [6] (Candida albicans) it was 1 µg/mL (≈ 1.08 µM).
